Source: ChEMBL document CHEMBL3885881, “DrugMatrix”

Species: Rattus norvegicus
Experiment: DrugMatrix - Regimen: Daily Repeat
Assay type: toxicity, organism-based, Sprague-Dawley
Design: regimen Daily Repeat, gender Male, age 6-8 weeks
Conditions: in vivo, po, route oral GAVAGE, vehicle .5 % CMC; for ABSOLUTE BASOPHIL / ABSOLUTE EOSINOPHIL / ABSOLUTE LYMPHOCYTE / ABSOLUTE MONOCYTE / ABSOLUTE SEGMENTED NEUTROPHIL / BASOPHIL / EOSINOPHIL / ERYTHROCYTE COUNT / HEMATOCRIT / HEMOGLOBIN / LEUKOCYTE COUNT / LYMPHOCYTE / MEAN CORPUSCULAR HEMOGLOBIN / MEAN CORPUSCULAR HEMOGLOBIN CONCENTRATION / MEAN CORPUSCULAR VOLUME / MONOCYTE / NEUTROPHIL / NUCLEATED RED BLOOD CELLS / PLATELET COUNT: tissue Blood; for ALANINE AMINOTRANSFERASE / ALBUMIN / ALKALINE PHOSPHATASE / ASPARTATE AMINOTRANSFERASE / BLOOD UREA NITROGEN / CARBON DIOXIDE / CHLORIDE / CHOLESTEROL / CREATINE PHOSPHOKINASE / CREATININE / GLUCOSE / LACTATE DEHYDROGENASE / LIPASE / PHOSPHORUS / POTASSIUM / SODIUM / TOTAL BILIRUBIN / TOTAL PROTEIN / URIC ACID: tissue Plasma
[1] = 50 mg/kg, 120 h, dose level Low, time 5 day
[2] = 2500 mg/kg, 72 h, dose level High, time 3 day
[3] = 2500 mg/kg, 120 h, dose level High, time 5 day

Compound: CC(/C=C1\SC(=S)N(CC(=O)O)C1=O)=C\c1ccccc1
- ABSOLUTE BASOPHIL [1]: 0 CELLS/uL
- ABSOLUTE EOSINOPHIL [1]: 0 CELLS/uL
- ABSOLUTE LYMPHOCYTE [1]: 8755.33 CELLS/uL
- ABSOLUTE MONOCYTE [1]: 98 CELLS/uL
- ABSOLUTE SEGMENTED NEUTROPHIL [1]: 946.67 CELLS/uL
- BASOPHIL [1]: 0%
- EOSINOPHIL [1]: 0%
- ERYTHROCYTE COUNT [1]: 5.47 x10E6/uL
- HEMATOCRIT [1]: 34.63%
- HEMOGLOBIN [1]: 14.03 G/DL
- LEUKOCYTE COUNT [1]: 9.8 x10E3/uL
- LYMPHOCYTE [1]: 89.67%
- MEAN CORPUSCULAR HEMOGLOBIN [1]: 25.7 pg
- MEAN CORPUSCULAR HEMOGLOBIN CONCENTRATION [1]: 40.53 G/DL
- MEAN CORPUSCULAR VOLUME [1]: 63.33 fL
- MONOCYTE [1]: 1%
- NEUTROPHIL [1]: 9.33%
- NUCLEATED RED BLOOD CELLS [1]: 0 /100WBC
- PLATELET COUNT [1]: 1226 x10E3/uL
- ALANINE AMINOTRANSFERASE [1]: 61.33 u/L
- ALBUMIN [1]: 4.5 G/DL
- ALKALINE PHOSPHATASE [1]: 418.33 u/L
- ASPARTATE AMINOTRANSFERASE [1]: 81.33 u/L
- BLOOD UREA NITROGEN [1]: 14.33 mg/dL
- CARBON DIOXIDE [1]: 34 mmol/L
- CHLORIDE [1]: 100.67 MEQ/L
- CHOLESTEROL [1]: 81 mg/dL
- CREATINE PHOSPHOKINASE [1]: 171 u/L
- CREATININE [1]: 0.12 mg/dL
- GLUCOSE [1]: 147.33 mg/dL
- LACTATE DEHYDROGENASE [1]: 106.67 u/L
- LIPASE [1]: 10 u/L
- PHOSPHORUS [1]: 10.83 mg/dL
- POTASSIUM [1]: 6.07 MEQ/L
- SODIUM [1]: 143.73 MEQ/L
- TOTAL BILIRUBIN [1]: 0.2 mg/dL
- TOTAL PROTEIN [1]: 6.37 G/DL
- URIC ACID [1]: 0.87 mg/dL
- ABSOLUTE BASOPHIL [2]: 0 CELLS/uL
- ABSOLUTE EOSINOPHIL [2]: 58.67 CELLS/uL
- ABSOLUTE LYMPHOCYTE [2]: 8116.67 CELLS/uL
- ABSOLUTE MONOCYTE [2]: 158 CELLS/uL
- ABSOLUTE SEGMENTED NEUTROPHIL [2]: 700 CELLS/uL
- BASOPHIL [2]: 0%
- EOSINOPHIL [2]: 0.67%
- ERYTHROCYTE COUNT [2]: 6.27 x10E6/uL
- HEMATOCRIT [2]: 39%
- HEMOGLOBIN [2]: 15.47 G/DL
- LEUKOCYTE COUNT [2]: 9.03 x10E3/uL
- LYMPHOCYTE [2]: 90%
- MEAN CORPUSCULAR HEMOGLOBIN [2]: 24.83 pg
- MEAN CORPUSCULAR HEMOGLOBIN CONCENTRATION [2]: 39.77 G/DL
- MEAN CORPUSCULAR VOLUME [2]: 62.43 fL
- MONOCYTE [2]: 1.67%
- NEUTROPHIL [2]: 7.67%
- NUCLEATED RED BLOOD CELLS [2]: 0 /100WBC
- PLATELET COUNT [2]: 1417 x10E3/uL
- ALANINE AMINOTRANSFERASE [2]: 61.33 u/L
- ALBUMIN [2]: 3.93 G/DL
- ALKALINE PHOSPHATASE [2]: 381 u/L
- ASPARTATE AMINOTRANSFERASE [2]: 133.33 u/L
- BLOOD UREA NITROGEN [2]: 25 mg/dL
- CARBON DIOXIDE [2]: 19 mmol/L
- CHLORIDE [2]: 105.33 MEQ/L
- CHOLESTEROL [2]: 46 mg/dL
- CREATINE PHOSPHOKINASE [2]: 544.33 u/L
- CREATININE [2]: 0.22 mg/dL
- GLUCOSE [2]: 130.33 mg/dL
- LACTATE DEHYDROGENASE [2]: 248.67 u/L
- LIPASE [2]: 9.33 u/L
- PHOSPHORUS [2]: 11.67 mg/dL
- POTASSIUM [2]: 5.57 MEQ/L
- SODIUM [2]: 142.23 MEQ/L
- TOTAL BILIRUBIN [2]: 0.27 mg/dL
- TOTAL PROTEIN [2]: 5.4 G/DL
- URIC ACID [2]: 1.83 mg/dL
- ABSOLUTE BASOPHIL [3]: 0 CELLS/uL
- ABSOLUTE EOSINOPHIL [3]: 0 CELLS/uL
- ABSOLUTE LYMPHOCYTE [3]: 3825 CELLS/uL
- ABSOLUTE MONOCYTE [3]: 102 CELLS/uL
- ABSOLUTE SEGMENTED NEUTROPHIL [3]: 1173 CELLS/uL
- BASOPHIL [3]: 0%
- EOSINOPHIL [3]: 0%
- ERYTHROCYTE COUNT [3]: 7.26 x10E6/uL
- HEMATOCRIT [3]: 41.8%
- HEMOGLOBIN [3]: 16.5 G/DL
- LEUKOCYTE COUNT [3]: 5.1 x10E3/uL
- LYMPHOCYTE [3]: 75%
- MEAN CORPUSCULAR HEMOGLOBIN [3]: 22.7 pg
- MEAN CORPUSCULAR HEMOGLOBIN CONCENTRATION [3]: 39.5 G/DL
- MEAN CORPUSCULAR VOLUME [3]: 57.6 fL
- MONOCYTE [3]: 2%
- NEUTROPHIL [3]: 23%
- NUCLEATED RED BLOOD CELLS [3]: 0 /100WBC
- PLATELET COUNT [3]: 1575 x10E3/uL
- ALANINE AMINOTRANSFERASE [3]: 38 u/L
- ALBUMIN [3]: 3.9 G/DL
- ALKALINE PHOSPHATASE [3]: 162 u/L
- ASPARTATE AMINOTRANSFERASE [3]: 70 u/L
- BLOOD UREA NITROGEN [3]: 24 mg/dL
- CARBON DIOXIDE [3]: 25 mmol/L
- CHLORIDE [3]: 100 MEQ/L
- CHOLESTEROL [3]: 64 mg/dL
- CREATINE PHOSPHOKINASE [3]: 119 u/L
- CREATININE [3]: 0.1 mg/dL
- GLUCOSE [3]: 89 mg/dL
- LACTATE DEHYDROGENASE [3]: 148 u/L
- LIPASE [3]: 7 u/L
- PHOSPHORUS [3]: 15.2 mg/dL
- POTASSIUM [3]: 4.09 MEQ/L
- SODIUM [3]: 144.1 MEQ/L
- TOTAL BILIRUBIN [3]: 0.5 mg/dL
- TOTAL PROTEIN [3]: 5.9 G/DL
- URIC ACID [3]: 2.1 mg/dL
